Experimental data taken from article PMC9578392, “Safety, Tolerability, and Pharmacokinetics of the Novel Antiviral Agent Ensitrelvir Fumaric Acid, a SARS-CoV-2 3CL Protease Inhibitor, in Healthy Adults” (Antimicrobial Agents and Chemotherapy, 2022).
Where two headings read alike, the source gives them in different places.

Experiments:
CYP3A = assay: Drug-drug interaction with midazolam (cohort G); settings: ensitrelvir 750/250 mg, from increase in AUC0-inf of midazolam
[1] = Multiple-dose pharmacokinetics (part 2, cohorts F, G, H); assay type: in vivo, human; settings: for GLS mean ratio (90% CI) of AUC0-τ (white/Japanese) / GLS mean ratio (90% CI) of Cmax (white/Japanese): 375/125 mg, cohort H vs F; for Cmax / AUC / Tmax: human, plasma, oral; for Cmax / AUC: geometric mean (%CV); for AUC: read-out: AUC0-τ; for Tmax: median (min, max)
[2] = Blood lipid profiling, single-dose part (Supplementary Table 3); assay type: in vivo, human
[3] = 375 mg, F/375/125 mg (Japanese), Day 1, fasted
[4] = 375 mg, H/375/125 mg (white), Day 1, fasted
[5] = 750 mg, G/750/250 mg (Japanese), Day 1, fasted
[6] = F/375/125 mg (Japanese), Day 5, fasted
[7] = G/750/250 mg (Japanese), Day 5, fasted
[8] = H/375/125 mg (white), Day 5, fasted

## Cn1cnc(Cn2c(=O)[nH]/c(=N\c3cc4cn(C)nc4cc3Cl)n(Cc3cc(F)c(F)cc3F)c2=O)n1 [Ensitrelvir, ensitrelvir fumaric acid]
CYP3A
  CYP3A inhibition classification: strong CYP3A inhibitor
[1]; day 1
  GLS mean ratio (90% CI) of AUC0-τ (white/Japanese): 0.7241 (0.6517–0.8046)
  GLS mean ratio (90% CI) of Cmax (white/Japanese): 0.7699 (0.6738–0.8796)
  GLS mean ratio (90% CI) of AUC0-τ, cohort G [750/250 mg] versus F [375/125 mg]: 1.6893 (1.4492–1.9692)
  GLS mean ratio (90% CI) of Cmax, cohort G [750/250 mg] versus F [375/125 mg]: 1.5185 (1.2747–1.8089)
[1]; day 5
  GLS mean ratio (90% CI) of AUC0-τ (white/Japanese): 0.8645 (0.7740–0.9656)
  GLS mean ratio (90% CI) of Cmax (white/Japanese): 0.8651 (0.7774–0.9627)
  GLS mean ratio (90% CI) of AUC0-τ, cohort G [750/250 mg] versus F [375/125 mg]: 2.2387 (1.9942–2.5132)
  GLS mean ratio (90% CI) of Cmax, cohort G [750/250 mg] versus F [375/125 mg]: 2.1781 (1.9460–2.4379)
[1]; [3]
  Cmax: 29500 ng/mL
  AUC: 484 µg·h/mL
  Tmax: 1.5 h
[1]; [4]
  Cmax: 22700 ng/mL
  AUC: 351 µg·h/mL
  Tmax: 1.75 h
[1]; [5]
  Cmax: 44800 ng/mL
  AUC: 818 µg·h/mL
  Tmax: 3 h
[1]; [6]
  Cmax: 30400 ng/mL
  AUC: 597 µg·h/mL
  Tmax: 2 h
[1]; [7]
  Cmax: 66300 ng/mL
  AUC: 1340 µg·h/mL
  Tmax: 2.5 h
[1]; [8]
  Cmax: 26300 ng/mL
  AUC: 516 µg·h/mL
  Tmax: 1.5 h
[2]; Cohort A 20 mg single dose, Day 2, baseline mean 0.8825
  Triglyceride, Mean (SD): 1.0032 mmol/L
[2]; Cohort A 20 mg single dose, Day 2, baseline mean 4.1635
  Cholesterol, Mean (SD): 4.2842 mmol/L
[2]; Cohort A 20 mg single dose, Day 2, baseline mean 460.0
  HDL-C, Mean (SD): 458.3 (47.9) mg/L
[2]; Cohort A 20 mg single dose, Day 2, baseline mean 993.3
  LDL-C, Mean (SD): 1048.3 mg/L
[2]; Cohort A 20 mg single dose, Day 4, baseline mean 0.8825
  Triglyceride, Mean (SD): 1.3643 mmol/L
[2]; Cohort A 20 mg single dose, Day 4, baseline mean 4.1635
  Cholesterol, Mean (SD): 4.2668 mmol/L
[2]; Cohort A 20 mg single dose, Day 4, baseline mean 460.0
  HDL-C, Mean (SD): 446.7 (63.1) mg/L
[2]; Cohort A 20 mg single dose, Day 4, baseline mean 993.3
  LDL-C, Mean (SD): 1026.7 mg/L
[2]; Cohort A 20 mg single dose, Day 7/Early termination, baseline mean 0.8825
  Triglyceride, Mean (SD): 1.3852 mmol/L
[2]; Cohort A 20 mg single dose, Day 7/Early termination, baseline mean 4.1635
  Cholesterol, Mean (SD): 4.1290 mmol/L
[2]; Cohort A 20 mg single dose, Day 7/Early termination, baseline mean 460.0
  HDL-C, Mean (SD): 440.0 (66.9) mg/L
[2]; Cohort A 20 mg single dose, Day 7/Early termination, baseline mean 993.3
  LDL-C, Mean (SD): 966.7 mg/L
[2]; Cohort A 20 mg single dose, Follow up, baseline mean 0.8825
  Triglyceride, Mean (SD): 0.7037 mmol/L
[2]; Cohort A 20 mg single dose, Follow up, baseline mean 4.1635
  Cholesterol, Mean (SD): 3.9048 mmol/L
[2]; Cohort A 20 mg single dose, Follow up, baseline mean 460.0
  HDL-C, Mean (SD): 445.0 (70.1) mg/L
[2]; Cohort A 20 mg single dose, Follow up, baseline mean 993.3
  LDL-C, Mean (SD): 923.3 mg/L
[2]; Cohort B 70 mg single dose, Day 2, baseline mean 1.0330
  Triglyceride, Mean (SD): 1.1478 mmol/L
[2]; Cohort B 70 mg single dose, Day 2, baseline mean 4.0987
  Cholesterol, Mean (SD): 4.1463 mmol/L
[2]; Cohort B 70 mg single dose, Day 2, baseline mean 436.7
  HDL-C, Mean (SD): 413.3 (42.7) mg/L
[2]; Cohort B 70 mg single dose, Day 2, baseline mean 995.0
  LDL-C, Mean (SD): 1041.7 mg/L
[2]; Cohort B 70 mg single dose, Day 4, baseline mean 1.0330
  Triglyceride, Mean (SD): 1.4170 mmol/L
[2]; Cohort B 70 mg single dose, Day 4, baseline mean 4.0987
  Cholesterol, Mean (SD): 4.0515 mmol/L
[2]; Cohort B 70 mg single dose, Day 4, baseline mean 436.7
  HDL-C, Mean (SD): 411.7 (52.3) mg/L
[2]; Cohort B 70 mg single dose, Day 4, baseline mean 995.0
  LDL-C, Mean (SD): 946.7 mg/L
[2]; Cohort B 70 mg single dose, Day 7/Early termination, baseline mean 1.0330
  Triglyceride, Mean (SD): 1.4393 mmol/L
[2]; Cohort B 70 mg single dose, Day 7/Early termination, baseline mean 4.0987
  Cholesterol, Mean (SD): 3.8145 mmol/L
[2]; Cohort B 70 mg single dose, Day 7/Early termination, baseline mean 436.7
  HDL-C, Mean (SD): 396.7 (60.2) mg/L
[2]; Cohort B 70 mg single dose, Day 7/Early termination, baseline mean 995.0
  LDL-C, Mean (SD): 881.7 mg/L
[2]; Cohort B 70 mg single dose, Follow up, baseline mean 1.0330
  Triglyceride, Mean (SD): 0.8882 mmol/L
[2]; Cohort B 70 mg single dose, Follow up, baseline mean 4.0987
  Cholesterol, Mean (SD): 3.7368 mmol/L
[2]; Cohort B 70 mg single dose, Follow up, baseline mean 436.7
  HDL-C, Mean (SD): 420.0 (55.1) mg/L
[2]; Cohort B 70 mg single dose, Follow up, baseline mean 995.0
  LDL-C, Mean (SD): 873.3 mg/L
[2]; Cohort C fasted state 250 mg single dose, Day 2 [Day 16], baseline mean 0.9596
  Triglyceride, Mean (SD): 1.3053 mmol/L
[2]; Cohort C fasted state 250 mg single dose, Day 2 [Day 16], baseline mean 4.1053
  Cholesterol, Mean (SD): 3.8918 mmol/L
